Columns and labels:
[1] = test system: patients given TRH; test: Amelioration of TRH side-effects by co-medication; design: species or system human; conditions: in vivo
Source text: In addition, all patients experiencing the various described side-effects considered those side-effects to be minor and desired further TRH treatments.

[2] = test system: tissue-cultured fetal rat lower motor neurons; test: Trophic-like effect on tissue-cultured fetal rat lower motor neurons (cholineactyltransferase); format: cell-based; conditions: chronic
Source text: "Transmitter-like," as used herein, includes not only direct excitatory (or facilitatory) and inhibitory actions on the lower motor neurons, but also any action on lower motor neurons or afferents thereto that results indirectly in such an effect. That excitatory TRH action, increasing patients' strength, is either directly excitatory or facilitatory and perhaps analogous to the lower motor neuron facilitation of glutamate excitation noted with TRH micropipetted into spinal cords of normal amphibia (Nicoll, J. Pharmac. Exp. Therap. 1978; 207: 817-24; Phillis et al., Can. J. Physiol. Pharmacol. 1979; 57: 887-99 and rodents, White Abstr. Soc. Neurosci 1983, 9: 714, and in other animal studies. An inhibitory transmitter-like action seems likely to underlie both the rapid-onset autorefractory phenomenon and the possibly related clinical reduction of spasticity, spasms and cramps. A tachyphalaxis or desensitization phenomenon, perhaps similar to the clinical autorefractory state, has been noted in animal lower motor neurons with larger amounts of TRH micropipetted into the spinal cord (Nicoll and Phillis, et al., supra).

Q: With `CN(C)CCOC(c1ccccc1)c1ccccc1.Cn1c(=O)c2[nH]c(Cl)nc2n(C)c1=O` [dimenhydrate] as the molecule, how does the “effect on nausea side-effect of TRH” value [1] read?
A: diminishes the rare, occurring nausea side-effect

Q: Which “effect on shivering side-effect of TRH” value [1] does the source give for `CC(N)C(O)c1ccccc1` (stereo not drawn) [phenylpropanolamine] here?
A: diminish the shivering side-effect

Q: For insulin, which enhancement of cholineactyltransferase [2] is on record?
A: 10 fold
